Data from patent US12389911B2, “Benzimidazole compound or salt thereof, agricultural and horticultural insecticidal and acaricidal agent containing said compound, and method for using same” (NIHON NOHYAKU CO., LTD., priority 2019, dated 2025).

These compounds were tested on Two-spotted spider mite (Tetranychus urticae) (assay: Acaricidal action on two-spotted spider mite (kidney bean leaf disk spray)). Conditions: 500 ppm, adult females, 25° C., two days after treatment.
Type: in vivo
Description: Acaricidal Action on Two-Spotted Spider Mite (Tetranychus urticae)
Leaf disk having a diameter of 2 cm was prepared by leaves of kidney bean, and the leaf disk was placed on the wetted filter paper. Adult hens of two-spotted spider mite were inoculated on the wetted filter paper, and then 50 ml of an agrochemical dispersion, prepared by diluting a formulation containing the benzimidazole compound represented by the general formula (1) of the present invention or salt thereof as an active ingredient to adjust each of the concentrations to 500 ppm, was sprayed on turntable uniformly. After the spraying, it was allowed to stand in a thermostatic chamber at 25° C. Two days after the treatment of an agrochemical dispersion, the dead mites were counted, the corrected mortality rate was calculated according to the formula shown below, and the acaricidal efficacy was evaluated according to the criteria of Test Example 2. This test was conducted in duplicate using 10 adult hens of two-spotted spider per plot. Corrected mortality(%)=(Number of dead mites in a non-treatment plot−Number of dead mites in a treatment plot)/(Number of dead mites in a non-treatment plot)×100 [Expression 4]

| SMILES | acaricidal efficacy (corrected mortality rate), activity level |
| --- | --- |
| CCOC(=O)c1cn(-c2nc3ccccc3n2S(=O)(=O)CC)nc1I [Compound 2-81] | D or higher |
| CCS(=O)(=O)n1c(-n2cc(C(=O)OC(C)(C)C)c(I)n2)nc2ccccc21 [Compound 2-82] | D or higher |
| CCS(=O)(=O)n1c(-n2cc(C(=O)OC(C)(C)C)c(/C=C/C3CC3)n2)nc2ccccc21 [Compound 2-83] | D or higher |
| CCS(=O)(=O)n1c(-n2cc(C(=O)OC(C)(C)C)c(CCC3CC3)n2)nc2ccccc21 [Compound 2-84] | D or higher |
| CCCCCc1nn(-c2nc3ccccc3n2S(=O)(=O)CC)cc1C(=O)OC(C)(C)C [Compound 2-85] | D or higher |
| CCS(=O)(=O)n1c(-n2cc(C(=O)OC(C)(C)C)c(C=C(C)C)n2)nc2ccccc21 [Compound 2-86] | D or higher |
| CCS(=O)(=O)n1c(-n2cc(C(=O)OC(C)(C)C)c(CC(C)C)n2)nc2ccccc21 [Compound 2-87] | D or higher |
| CCS(=O)(=O)n1c(-n2cc(C(=O)OC(C)(C)C)c(C#Cc3ccccc3)n2)nc2ccccc21 [Compound 2-88] | D or higher |
| CCS(=O)(=O)n1c(-n2cc(C(=O)OC(C)(C)C)c(CCc3ccccc3)n2)nc2ccccc21 [Compound 2-89] | D or higher |
| CCS(=O)(=O)n1c(-n2cc(C(=O)OC(C)(C)C)c(C(F)(F)C(F)(F)F)n2)nc2ccccc21 [Compound 2-90] | D or higher |
| CCS(=O)(=O)n1c(-n2nc(COC(C)(C)C)c(C(=O)OC(C)(C)C)c2C)nc2ccccc21 [Compound 2-91] | D or higher |
| C#CCOc1nn(-c2nc3ccccc3n2S(=O)(=O)CC)cc1C(=O)OC(C)(C)C [Compound 2-92] | D or higher |
| CCS(=O)(=O)n1c(-n2cc(C(=O)OC(C(F)(F)F)C(F)(F)F)cn2)nc2ccccc21 [Compound 2-93] | D or higher |
| CCS(=O)(=O)n1c(-n2cc(C(=O)NCC(F)(F)F)c(C(C)(C)C)n2)nc2ccccc21 [Compound 2-94] | D or higher |
| CCS(=O)(=O)n1c(-n2cc(C(=O)NCC(F)(F)F)c(C(=O)NCC(F)(F)F)n2)nc2ccccc21 [Compound 2-95] | D or higher |
| CCS(=O)(=O)n1c(-n2cc(C(=O)NC3CC3)c(C(C)(C)C)n2)nc2ccccc21 [Compound 2-96] | D or higher |
| CCS(=O)(=O)n1c(-n2cc(C(=O)NC(C)(C)C)c(C(C)(C)C)n2)nc2ccccc21 [Compound 2-97] | D or higher |
| CCS(=O)(=O)n1c(-n2cc(C(=O)N(C)C(C)(C)C)c(C(=O)N(C)C(C)(C)C)n2)nc2ccccc21 [Compound 2-98] | D or higher |
| CCS(=O)(=O)n1c(-n2cc(C#N)c(C(C)(C)C)n2)nc2ccccc21 [Compound 2-99] | D or higher |
| CCS(=O)(=O)n1c(-n2cc(C#Cc3ccccc3)c(OCC(F)(F)F)n2)nc2ccccc21 [Compound 2-100] | D or higher |
| CCS(=O)(=O)n1c(-n2cc(CCc3ccccc3)c(OCC(F)(F)F)n2)nc2ccccc21 [Compound 2-101] | D or higher |
| CCS(=O)(=O)n1c(-n2cc(CCC(=O)OC(C)(C)C)c(OCC(F)(F)F)n2)nc2ccccc21 [Compound 2-102] | D or higher |
| CCS(=O)(=O)n1c(-n2ccc(OCCCC(=O)OC(C)(C)C)n2)nc2ccccc21 [Compound 2-103] | D or higher |
| CCS(=O)(=O)n1c(-n2cc(I)c(C(=O)OC(C)(C)C)n2)nc2ccccc21 [Compound 2-104] | D or higher |
| CCS(=O)(=O)n1c(-n2cc(C3CC3)c(C(=O)OC(C)(C)C)n2)nc2ccccc21 [Compound 2-105] | D or higher |
| CCS(=O)(=O)n1c(-n2cc(C#Cc3ccccc3)c(C(=O)OC(C)(C)C)n2)nc2ccccc21 [Compound 2-106] | D or higher |

| SMILES | acaricidal efficacy (corrected mortality rate), activity level |
| --- | --- |
| CCS(=O)(=O)n1c(-n2cc(CCc3ccccc3)c(C(=O)OC(C)(C)C)n2)nc2ccccc21 [Compound 2-107] | D or higher |
| CCS(=O)(=O)n1c(-n2cc(C#N)c(C(=O)OC(C)(C)C)n2)nc2ccccc21 [Compound 2-108] | D or higher |
| CCS(=O)(=O)n1c(-n2cc(CCc3ccccc3)c(C#N)n2)nc2ccccc21 [Compound 2-109] | D or higher |
| C#Cc1cn(-c2nc3ccccc3n2S(=O)(=O)CC)nc1C(F)(F)F [Compound 2-110] | D or higher |
| CCS(=O)(=O)n1c(-n2cc(C#N)c(C(F)(F)C(F)(F)F)n2)nc2ccccc21 [Compound 2-111] | D or higher |
| CCS(=O)(=O)n1c(-n2cc(/C=C/C(=O)OC(C(F)(F)F)C(F)(F)F)c(C(F)(F)F)n2)nc2ccccc21 [Compound 2-112] | D or higher |
| CCS(=O)(=O)n1c(-n2cc(/C=C/C(=O)OCC(C)(C)C)c(C(F)(F)F)n2)nc2ccccc21 [Compound 2-113] | D or higher |
| CCS(=O)(=O)n1c(-n2cc(/C=C/C(=O)OCc3ccc(C(C)(C)C)cc3)c(C(F)(F)F)n2)nc2ccccc21 [Compound 2-114] | D or higher |
| CCS(=O)(=O)n1c(-n2cc(/C=C/C(=O)OCc3ccc(C(F)(F)F)cc3)c(C(F)(F)F)n2)nc2ccccc21 [Compound 2-115] | D or higher |
| CCS(=O)(=O)n1c(-n2cc(/C=C/C(=O)OCC34CC5CC(CC(C5)C3)C4)c(C(F)(F)F)n2)nc2ccccc21 [Compound 2-116] | D or higher |
| CCS(=O)(=O)n1c(-n2cc(/C=C/C(=O)NCC(F)(F)F)c(C(F)(F)F)n2)nc2ccccc21 [Compound 2-117] | D or higher |
| CCS(=O)(=O)n1c(-n2cc(C#Cc3ccccn3)c(C(F)(F)F)n2)nc2ccccc21 [Compound 2-118] | D or higher |
| CCS(=O)(=O)n1c(-n2cc(C(C)=O)c(C)n2)nc2ccccc21 [Compound 2-119] | D or higher |
| CCS(=O)(=O)n1c(-n2cc(S(=O)(=O)N(C)C)c(C(F)(F)F)n2)nc2ccccc21 [Compound 2-120] | D or higher |
| CCS(=O)(=O)n1c(-n2cc(SCc3ccc(C(C)(C)C)cc3)c(C(F)(F)F)n2)nc2ccccc21 [Compound 2-121] | D or higher |
| CCCC#Cc1cn(-c2nc3ccccc3n2S(=O)(=O)CC)nc1C(F)(F)F [Compound 2-122] | D or higher |
| CCS(=O)(=O)n1c(-n2cc(C#CC3CC3)c(C(F)(F)F)n2)nc2ccccc21 [Compound 2-123] | D or higher |
| CCS(=O)(=O)n1c(-n2cc(C#CC(C)(C)C)c(C(F)(F)F)n2)nc2ccccc21 [Compound 2-124] | D or higher |
| CCCCCc1cn(-c2nc3ccccc3n2S(=O)(=O)CC)nc1C(F)(F)F [Compound 2-125] | D or higher |
| CCS(=O)(=O)n1c(-n2cc(CCC3CC3)c(C(F)(F)F)n2)nc2ccccc21 [Compound 2-126] | D or higher |
| CCS(=O)(=O)n1c(-n2cc(CCC(C)(C)C)c(C(F)(F)F)n2)nc2ccccc21 [Compound 2-127] | D or higher |
| CCS(=O)(=O)n1c(-n2cc(C#CCOC)c(C(F)(F)F)n2)nc2ccccc21 [Compound 2-128] | D or higher |
| CCS(=O)(=O)n1c(-n2cc(C#CC(C)(C)OC)c(C(F)(F)F)n2)nc2ccccc21 [Compound 2-129] | D or higher |
| CCS(=O)(=O)n1c(-n2cc(/C=C/C(=O)OC(C)(C)C)c(C(=O)OC(C)(C)C)n2)nc2ccccc21 [Compound 2-130] | D or higher |
| CCS(=O)(=O)n1c(-n2cc(C(=O)CC(C)(C)C)c(CC(C)(C)C)n2)nc2ccccc21 [Compound 2-131] | D or higher |
